Measurements: ChEMBL document CHEMBL4270593, “Novel spiroindoline HDAC inhibitors: Synthesis, molecular modelling and biological studies” (Eur J Med Chem, 2018)
pIC50: −log10 of the molar value. Calls of active or inactive are those of the source. The calls are words filed in the database; no cut-off is given here.

Columns and labels:
[1] = Inhibition of class 1 HDAC in human U87 cells assessed as levels of histone H3 acetylation at lysine 9/14 at 1 uM after 30 hrs by Western blot analysis relative to control; settings: u87, 30 h
[2] = Inhibition of class 1 HDAC in human U87 cells assessed as levels of histone H3 acetylation at lysine 9/14 at 5 uM after 30 hrs by Western blot analysis relative to control; settings: u87, 30 h
[3] = Inhibition of class 1 HDAC in human NB4 cells assessed as levels of histone H3 acetylation at lysine 9/14 at 5 uM after 30 hrs by Western blot analysis relative to control
[4] = Inhibition of class 1 HDAC in human NB4 cells assessed as levels of histone H3 acetylation at lysine 9/14 at 1 uM after 30 hrs by Western blot analysis relative to control
[5] = Inhibition of class 1 HDAC in human SH-SY5Y cells assessed as levels of histone H3 acetylation at lysine 9/14 at 5 uM after 30 hrs by Western blot analysis relative to control
[6] = Inhibition of class 1 HDAC in human SH-SY5Y cells assessed as levels of histone H3 acetylation at lysine 9/14 at 1 uM after 30 hrs by Western blot analysis relative to control
[7] = target: Histone deacetylase 1 (Homo sapiens, UniProt Q13547); assay: Inhibition of human recombinant C-terminal His/FLAG-tagged full length HDAC1 expressed in insect SF9 cells using fluorogenic ZMAL as substrate after 90 mins by fluorescence-based assay
Chain of Histone deacetylase 1 (Q13547 whole entry): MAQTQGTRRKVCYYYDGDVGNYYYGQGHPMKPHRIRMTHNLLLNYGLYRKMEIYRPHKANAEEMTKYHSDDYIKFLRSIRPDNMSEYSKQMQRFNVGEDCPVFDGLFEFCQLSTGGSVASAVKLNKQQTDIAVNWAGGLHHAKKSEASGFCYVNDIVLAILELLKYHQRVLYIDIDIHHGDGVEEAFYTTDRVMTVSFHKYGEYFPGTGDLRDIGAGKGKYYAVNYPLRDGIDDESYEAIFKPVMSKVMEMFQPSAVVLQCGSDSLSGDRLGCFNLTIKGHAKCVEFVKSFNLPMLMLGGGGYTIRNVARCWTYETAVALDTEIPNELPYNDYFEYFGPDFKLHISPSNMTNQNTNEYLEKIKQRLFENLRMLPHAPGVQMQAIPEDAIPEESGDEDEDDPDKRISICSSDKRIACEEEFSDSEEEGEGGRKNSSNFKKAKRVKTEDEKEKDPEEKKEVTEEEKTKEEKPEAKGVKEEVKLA

[8] = species: Homo sapiens; assay: Selectivity ratio of IC50 for human recombinant C-terminal His/FLAG-tagged full length HDAC1 to IC50 for N-terminal GST-tagged full length HDAC6
[9] = target: T1, Protein deacetylase HDAC6 (Homo sapiens, UniProt Q9UBN7); assay: Inhibition of human recombinant N-terminal GST-tagged full length HDAC6 expressed in insect SF9 cells using fluorogenic ZMAL as substrate after 90 mins by fluorescence-based assay
T1 sequence (Q9UBN7 whole entry): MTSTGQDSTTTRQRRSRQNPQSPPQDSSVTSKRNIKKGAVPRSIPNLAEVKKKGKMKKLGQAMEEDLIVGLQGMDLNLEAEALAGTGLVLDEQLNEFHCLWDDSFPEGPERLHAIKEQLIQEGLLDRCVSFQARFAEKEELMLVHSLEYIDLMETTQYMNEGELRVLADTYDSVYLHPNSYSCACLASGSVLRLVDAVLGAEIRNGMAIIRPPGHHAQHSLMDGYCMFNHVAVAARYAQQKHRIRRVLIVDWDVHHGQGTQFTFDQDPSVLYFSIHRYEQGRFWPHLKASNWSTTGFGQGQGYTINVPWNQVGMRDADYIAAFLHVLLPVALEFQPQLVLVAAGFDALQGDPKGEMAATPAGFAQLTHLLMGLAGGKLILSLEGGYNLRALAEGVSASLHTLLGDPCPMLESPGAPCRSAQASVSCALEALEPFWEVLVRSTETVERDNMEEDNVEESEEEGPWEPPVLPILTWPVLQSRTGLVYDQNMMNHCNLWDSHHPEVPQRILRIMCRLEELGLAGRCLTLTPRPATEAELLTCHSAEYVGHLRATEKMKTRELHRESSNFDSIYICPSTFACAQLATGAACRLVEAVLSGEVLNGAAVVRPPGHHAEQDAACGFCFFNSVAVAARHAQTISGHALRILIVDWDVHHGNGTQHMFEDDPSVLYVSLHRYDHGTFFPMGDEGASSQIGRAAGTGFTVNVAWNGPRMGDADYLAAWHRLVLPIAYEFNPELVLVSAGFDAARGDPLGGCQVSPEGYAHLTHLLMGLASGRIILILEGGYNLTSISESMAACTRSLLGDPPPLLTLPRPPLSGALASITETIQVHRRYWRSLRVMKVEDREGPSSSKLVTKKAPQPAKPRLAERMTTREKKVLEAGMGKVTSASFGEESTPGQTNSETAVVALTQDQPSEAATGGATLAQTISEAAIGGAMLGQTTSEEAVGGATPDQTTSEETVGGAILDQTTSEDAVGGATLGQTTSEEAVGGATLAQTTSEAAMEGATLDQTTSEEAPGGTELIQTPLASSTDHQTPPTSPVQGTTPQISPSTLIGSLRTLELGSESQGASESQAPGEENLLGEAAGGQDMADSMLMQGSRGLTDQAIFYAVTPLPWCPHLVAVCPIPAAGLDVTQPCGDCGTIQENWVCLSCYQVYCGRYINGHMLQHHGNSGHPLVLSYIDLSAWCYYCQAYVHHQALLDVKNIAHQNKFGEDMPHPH

[10] = target: T2, Protein deacetylase HDAC6 (Homo sapiens) (UniProt Q9UBN7); assay: Inhibition of HDAC6 in human U87 cells assessed as increase in levels of alpha-tubulin acetylation after 30 hrs by Western blot analysis; format: cell-based
T2 sequence (whole entry): T1 sequence (Q9UBN7 whole entry)

[11] = Cytotoxicity against mouse NIH/3T3 cells assessed as reduction in cell viability by neutral red uptake test; format: cell-based, NIH3T3; settings: read-out: TC50 (the source's name)
[12] = tested on: NB-4; assay: Induction of cell death in human NB4 cells assessed as DNA fragmentation at 5 uM after 30 hrs by propidium iodide-based FACS analysis; format: functional
[13] = target: T2, Protein deacetylase HDAC6 (Homo sapiens); assay: Inhibition of HDAC6 in human SH-SY5Y cells assessed as increase in levels of alpha-tubulin acetylation after 30 hrs by Western blot analysis; format: cell-based
[14] = target: T2, Protein deacetylase HDAC6 (Homo sapiens); assay: Inhibition of HDAC6 in human SH-SY5Y cells assessed as reduction in cell migration at 5 uM measured every 2 mins for 4 days by RTCA based assay
[15] = target: T3, Histone deacetylase 8 (Homo sapiens, UniProt Q9BY41); assay: Inhibition of human recombinant HDAC8 using fluor de Lys(R) as substrate after 90 mins by fluorescence-based assay
T3 sequence (Q9BY41 whole entry): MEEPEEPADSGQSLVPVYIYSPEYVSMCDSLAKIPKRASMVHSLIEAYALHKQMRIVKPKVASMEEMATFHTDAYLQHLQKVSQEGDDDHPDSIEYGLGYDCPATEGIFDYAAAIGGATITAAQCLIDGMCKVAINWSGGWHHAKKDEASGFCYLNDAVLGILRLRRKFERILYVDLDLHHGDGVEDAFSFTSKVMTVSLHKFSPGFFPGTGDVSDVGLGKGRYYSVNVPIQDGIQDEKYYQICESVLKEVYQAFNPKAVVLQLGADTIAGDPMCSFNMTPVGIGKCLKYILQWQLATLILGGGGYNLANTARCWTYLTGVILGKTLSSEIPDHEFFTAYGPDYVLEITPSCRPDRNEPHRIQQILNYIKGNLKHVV

[16] = tested on: NB-4; assay: Induction of cell cycle arrest in human NB4 cells assessed as accumulation at G1 phase after 30 hrs by propidium iodide-based FACS analysis; format: functional
[17] = species: Homo sapiens; assay: Selectivity ratio of IC50 for human recombinant C-terminal His-tagged full length HDAC3/NcoR2 to IC50 for human recombinant N-terminal GST-tagged full length HDAC6
[18] = species: Homo sapiens; assay: Selectivity ratio of IC50 for human recombinant C-terminal His/FLAG-tagged full length HDAC2 to IC50 for human recombinant N-terminal GST-tagged full length HDAC6
[19] = tested on: NB-4; assay: Induction of cell cycle arrest in human NB4 cells assessed as accumulation at G1 phase at 5 uM after 30 hrs by propidium iodide-based FACS analysis; format: functional

| SMILES | FC [1] | FC [2] | FC [3] | FC [4] | pIC50 [7] | Ratio IC50 [8] | pIC50 [9] | further results |
| --- | --- | --- | --- | --- | --- | --- | --- | --- |
| CN1CCc2c(c3ccccc3n2Cc2ccc(C(=O)NO)cc2)C1 [TUBASTATIN A] | 1.68 to 1.97 | 2.18 to 2.38 | 0.97 | 0.84 |  |  |  | FC [5]: 1.17; FC [6]: 1.13 |
| CN1CCC2(CC1)CN(Cc1ccc(C(=O)NO)s1)c1ccccc12 |  |  |  |  | 4.94 | 6 | 5.75 |  |
| O=C(CCCCCCC(=O)Nc1ccccc1)NO |  |  |  |  |  |  |  | Activity [16]: Active |
| O=C(CCCCCCNC(=O)c1cnc(N(c2ccccc2)c2ccccc2)nc1)NO |  |  |  |  |  | 10 |  | Ratio IC50 [17]: 10; Ratio IC50 [18]: 10 |
| O=C(CCCCCCNC(=O)c1cnc(N(c2ccccc2)c2ccccc2Cl)nc1)NO |  |  |  |  |  | 10 |  | Ratio IC50 [17]: 10; Ratio IC50 [18]: 10 |

The next lines start with results.

| FC [1] | FC [2] | FC [3] | FC [4] | pIC50 [7] | Ratio IC50 [8] | pIC50 [9] | SMILES | further results |
| --- | --- | --- | --- | --- | --- | --- | --- | --- |
| 1.83 | 1.6 | 2.44 | 1.02 | 4.93 | 57 | 6.69 | CN1CCC2(CC1)CN(Cc1ccc(C(=O)NO)cc1)c1ccccc12 | inhibition [10]: Dose-dependent effect |
| 2.74 | 2.12 | 0.96 | 1.12 | 5.40 | 95 | 7.38 | CC(C)(C)OC(=O)N1CCC2(CC1)CN(Cc1ccc(C(=O)NO)cc1)c1ccccc12 | CC50 [11]: 23000 nM; Activity [12]: Active; inhibition [13]: Dose-dependent effect; inhibition [14]: Active; FC [5]: 1.11; pIC50 [15]: 5.80; FC [6]: 1.1 |
| 1.77 | 2.21 | 2.58 | 2.27 | 5.17 | 166 | 7.39 | O=C(NO)c1ccc(CN2CC3(CCCCC3)c3ccccc32)cc1 | inhibition [10]: Dose-dependent effect; pIC50 [15]: 6.60 |
|  |  |  |  | 5.14 | 116 | 7.20 | CC(=O)N1CCC2(CC1)CN(Cc1ccc(C(=O)NO)cc1)c1ccccc12 |  |
|  |  |  |  | 4.96 | 15 | 6.14 | CC(C)(C)OC(=O)N1CCC2(CC1)CN(Cc1ccc(C(=O)NO)s1)c1ccccc12 | pIC50 [15]: 5.87 |
|  |  |  |  | 5.35 | 74 | 7.22 | CC(C)(C)C(=O)N1CCC2(CC1)CN(Cc1ccc(C(=O)NO)cc1)c1ccccc12 | Activity [19]: Active |
